One data set has as its system NIH3T3 cells. Nature of the data set: Cell viability, MTS colorimetric analysis, NIH3T3. In kind it is cell-based. Conditions: 24 hours, up to 30 μM. The procedure: (A) Pendrin-mediated Cl^−/I^− exchange activity (mean±S.E., n=5). The indicated concentration of F56 was pretreated for 10 minutes. (B, C) Representative tracing of intracellular pH. The application of Cl^− free solution induced intracellular alkalization through pendrin-mediated Cl^−/HCO3^− and Cl^−/OH^− exchange activity. The indicated concentration of F56 was pretreated for 10 minutes. (D-F) The pendrin-mediated Cl^−/I^− exchange activity was measured in CHO-K1 cells expressing human pendrin. The indicated concentration of F56, PDSinh-A01 and PDSinh-C01 was pretreated for 10 minutes. (G) Summary of dose-response of F56, PDSinh-A01 and PDSinh-C01 (mean±S.E., n=3). (H, I) Effect of F56, PDSinh-A01 and PDSinh-C01 on the cell viability in NIH3T3 (H) and CHO-K1 (I) cells. The cells were treated with F56, PDSinh-A01 and PDSinh-C01 for 24 hours. The cell viability was measured by MTS colorimetric analysis (mean±S.E., n=3). NTC, non-transfected cells.
The cells were treated with F10 for 24 hours. The cell viability was determined by MTS colorimetric analysis (mean±S.E., n=3).

Another data set addresses T1, human CFTR (Homo sapiens, UniProt P13569).
T1 construct: expressed in transfected cells; host or cells: FRT (Fischer rat thyroid) cells; for F10 also expressing mutant YFP
As to the kind of experiment: CFTR chloride channel activity in FRT cells. The data set is classed as cell-based. Here is the method:
(A) The inhibition of mouse pendrin (mPDS)-mediated Cl^−/I^− exchange activity by F56 was measured in CHO-K1 cells (mean±S.E., n=5). The indicated concentration of F56 was pretreated for 10 minutes. (B) Summary of dose-response for inhibition of the human pendrin (hPDS)-mediated (closed circle, FIG. (a), C) and mPDS-mediated (open circle) Cl^−/I^− exchange activity. (C-F) Representative traces of intracellular pH in CHO-K1 cells expressing SLC26A3, SLC26A6, SLC26A7 and SLC26A9 were shown. The application of Cl^− free solution induced intracellular alkalization by Cl^−/HCO3^− exchange. The indicated concentration of F56 was pretreated for 10 minutes. (G) the effect of F56 (100 μM) on the CFTR chloride channel activity was measured in FRT cells expressing human CFTR. […] (H) The effect of F56 (100 μM) on the AN01 chloride channel activity was measured in FRT cells expressing human AN01. […] (I) The effect of F56 on the hERG (Kv11.1) potassium channel activity was measured in HEK293T cells expressing human Kv11.1 (mean±S.E., n=4). […] (J) The effect of F56 on the 5-HT2A channel activity was measured in FRT cells expressing human 5-HT2A (mean±S.E., n=4). […]
(A) The effect of F10 (30 μM) on the CFTR channel was measured in FRT cells expressing human CFTR and mutant YFP. […] (B) The effect of F10 (30 μM) on the AN01 channel activity was measured in FRT cells expressing human and mutant YFP. […]

T1 sequence (P13569 whole entry): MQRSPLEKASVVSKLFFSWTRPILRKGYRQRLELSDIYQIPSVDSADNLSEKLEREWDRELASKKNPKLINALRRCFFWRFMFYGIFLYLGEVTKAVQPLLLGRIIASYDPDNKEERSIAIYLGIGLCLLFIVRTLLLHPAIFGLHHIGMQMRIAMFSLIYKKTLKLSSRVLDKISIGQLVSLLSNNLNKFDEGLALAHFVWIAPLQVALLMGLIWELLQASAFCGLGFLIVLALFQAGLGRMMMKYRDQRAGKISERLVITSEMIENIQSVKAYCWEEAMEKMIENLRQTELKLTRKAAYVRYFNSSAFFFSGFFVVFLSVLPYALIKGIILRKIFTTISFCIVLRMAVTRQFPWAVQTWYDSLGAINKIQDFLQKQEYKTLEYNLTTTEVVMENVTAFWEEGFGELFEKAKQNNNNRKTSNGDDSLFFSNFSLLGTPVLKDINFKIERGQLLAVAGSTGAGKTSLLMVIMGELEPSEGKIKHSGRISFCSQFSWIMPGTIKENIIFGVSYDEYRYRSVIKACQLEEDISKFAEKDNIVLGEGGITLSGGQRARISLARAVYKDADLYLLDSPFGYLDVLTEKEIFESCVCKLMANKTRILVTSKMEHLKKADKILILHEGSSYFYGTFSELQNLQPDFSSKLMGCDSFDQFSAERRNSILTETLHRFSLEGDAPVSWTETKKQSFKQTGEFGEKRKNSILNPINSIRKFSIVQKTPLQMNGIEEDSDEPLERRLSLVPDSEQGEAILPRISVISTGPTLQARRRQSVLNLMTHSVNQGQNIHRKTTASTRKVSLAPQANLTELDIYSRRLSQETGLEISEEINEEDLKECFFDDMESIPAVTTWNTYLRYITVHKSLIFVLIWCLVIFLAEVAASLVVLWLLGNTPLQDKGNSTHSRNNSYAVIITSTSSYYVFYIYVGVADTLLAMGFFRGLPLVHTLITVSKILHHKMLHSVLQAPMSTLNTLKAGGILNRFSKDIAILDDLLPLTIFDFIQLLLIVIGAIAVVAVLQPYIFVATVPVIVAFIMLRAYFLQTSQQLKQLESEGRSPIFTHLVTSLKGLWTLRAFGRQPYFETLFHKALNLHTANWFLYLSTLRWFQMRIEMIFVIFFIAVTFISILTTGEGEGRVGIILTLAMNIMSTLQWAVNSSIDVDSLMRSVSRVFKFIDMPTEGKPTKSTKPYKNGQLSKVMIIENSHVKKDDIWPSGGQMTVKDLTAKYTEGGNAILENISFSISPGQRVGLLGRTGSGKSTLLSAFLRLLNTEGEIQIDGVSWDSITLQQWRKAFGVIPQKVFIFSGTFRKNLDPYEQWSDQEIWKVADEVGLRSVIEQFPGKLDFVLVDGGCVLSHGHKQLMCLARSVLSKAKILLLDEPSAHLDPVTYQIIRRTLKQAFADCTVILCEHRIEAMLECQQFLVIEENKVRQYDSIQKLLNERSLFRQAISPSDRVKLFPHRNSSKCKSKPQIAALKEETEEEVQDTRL

Turning to `CC(C)(C)c1ccc(C2=NC(=Cc3ccc[nH]3)C(=O)O2)cc1` [F10, 4-((1H-pyrrol-2-yl)methylene)-2-(4-(tert-butyl)phenyl)oxazol-5 (4H)-one], the “cytotoxicity in NIH3T3 cells” value with NIH3T3 cells was “did not show any cytotoxicity up to 30 μM”. Further, the “effect on CFTR channel activity” value at human CFTR (30 μM, FRT cells with mutant YFP) is reported as “did not show any effect”.
Turning to `CC(C)(C)c1ccc(C2=NC(=Cc3cccs3)C(=O)O2)cc1` [F56, 2-(4-(tert-butyl)phenyl)-4-(thiophen-2-ylmethylene)oxazol-5(4H)-one], the “cytotoxicity in NIH3T3 cells” value in the data set on NIH3T3 cells is “did not show cytotoxicity up to 30 μM”. Besides, the “effect on CFTR activity” value on human CFTR (100 μM, FRT cells, forskolin-activated) is “not affected”.

Source of the values: patent publication US12691101B2, “Compound and method for preventing or treating of respiratory diseases comprising the same as an active ingredient” (YONSEI UNIVERSITY, UNIVERSITY - INDUSTRY FOUNDATION (UIF), priority 2019, dated 2026).
